Source: ChEMBL document CHEMBL4420076, “Amylin and calcitonin receptor agonist” (2017)
Numbered stars: 1 amine (or outer) side, 2 acyl side, 3 side chain; on linkers, the order of the positions; unused ones are H or OH. Peptide text beside a SMILES is read from it. * marks the point of attachment. C20 diacid = O=C(O)CCCCCCCCCCCCCCCCCCC(=O)*; γGlu = O=C(O)[C@H](CCC(=O)[*:2])N[*:1]; AEEA = NCCOCCOCC(=O)O

Assays:
[1] = Solubility in 100 mM glycylglycine buffer at pH 3.0 incubated for 18 hrs by UPLC analysis; type: physicochemical
[2] = Solubility in 100 mM bistrispropane buffer at pH 6.5 incubated for 18 hrs by UPLC analysis; type: physicochemical
Calcitonin receptor [3] = biological target: T1, Calcitonin receptor (Homo sapiens, UniProt P30988); assay: Agonist activity at human calcitonin receptor expressed in BHK570 cells assessed as increase in intracellular cAMP concentration incubated for 3 hrs in absence of albumin by CRE luciferase reporter gene assay; type: functional, cell-based
T1 sequence (P30988 whole entry): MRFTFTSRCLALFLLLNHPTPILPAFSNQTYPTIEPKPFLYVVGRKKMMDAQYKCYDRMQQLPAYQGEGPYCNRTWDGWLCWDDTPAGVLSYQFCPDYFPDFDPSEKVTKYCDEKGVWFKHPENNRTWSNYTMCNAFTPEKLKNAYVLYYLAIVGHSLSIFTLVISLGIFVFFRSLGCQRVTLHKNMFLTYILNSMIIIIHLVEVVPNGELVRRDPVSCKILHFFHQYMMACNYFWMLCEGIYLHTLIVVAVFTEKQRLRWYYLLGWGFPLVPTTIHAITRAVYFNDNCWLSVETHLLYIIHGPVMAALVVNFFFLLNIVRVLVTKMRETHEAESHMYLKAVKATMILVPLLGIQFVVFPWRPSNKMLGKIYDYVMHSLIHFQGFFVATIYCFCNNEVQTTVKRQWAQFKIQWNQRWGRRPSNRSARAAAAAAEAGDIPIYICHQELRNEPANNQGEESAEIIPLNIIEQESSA

[4] = Solubility in 100 mM glycylglycine buffer at pH 4.0 incubated for 18 hrs by UPLC analysis; type: physicochemical
[5] = Solubility in 100 mM bistrispropane buffer at pH 7.0 incubated for 18 hrs by UPLC analysis; type: physicochemical
[6] = Solubility in 100 mM glycylglycine buffer at pH 5.0 incubated for 18 hrs by UPLC analysis; type: physicochemical
[7] = Solubility in 100 mM bistrispropane buffer at pH 7.5 incubated for 18 hrs by UPLC analysis; type: physicochemical
[8] = Stability in pH 7.5 buffer assessed as lag time for fibril formation at 1 uM by Thioflavin T based fluorescence assay; type: physicochemical; details: pH 7.5, 1 µM
[9] = Solubility in 100 mM bistrispropane buffer at pH 6.0 incubated for 18 hrs by UPLC analysis; type: physicochemical
Calcitonin receptor [10] = biological target: T1, Calcitonin receptor; assay: Agonist activity at human calcitonin receptor expressed in BHK570 cells assessed as increase in intracellular cAMP concentration incubated for 3 hrs in presence of 10% FBS by CRE luciferase reporter gene assay; type: functional, cell-based
[11] = biological target: T2, Amylin receptor AMY3; CALCR/RAMP3 (Homo sapiens, UniProt O60896+P30988); assay: Agonist activity at human amylin receptor expressed in BHK570 cells co-expressing RAMP3 assessed as increase in intracellular cAMP concentration incubated for 3 hrs in presence of 10% FBS by CRE luciferase reporter gene assay; type: functional, cell-based
T2 sequence (P30988 whole entry): T1 sequence (P30988 whole entry)
T2 sequence (O60896 whole entry): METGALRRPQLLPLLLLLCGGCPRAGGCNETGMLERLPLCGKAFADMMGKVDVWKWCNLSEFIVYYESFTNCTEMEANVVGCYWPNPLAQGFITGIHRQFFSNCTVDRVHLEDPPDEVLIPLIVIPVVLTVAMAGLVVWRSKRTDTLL

[12] = Solubility in 100 mM bistrispropane buffer at pH 8.0 incubated for 18 hrs by UPLC analysis; type: physicochemical
[13] = Stability in pH 7.5 buffer assessed as compound recovery at 1 uM by Thioflavin T based fluorescence assay; type: physicochemical; details: read-out: Drug recovery
[14] = biological target: T2, Amylin receptor AMY3; CALCR/RAMP3; assay: Agonist activity at human amylin receptor expressed in BHK570 cells co-expressing RAMP3 assessed as increase in intracellular cAMP concentration incubated for 3 hrs in absence of albumin by CRE luciferase reporter gene assay; type: functional, cell-based

solubility at 18 h [1] [µM] | solubility at 18 h [2] [µM] | EC50 (Calcitonin receptor [3]) [nM] | solubility at 18 h [4] [µM] | solubility at 18 h [5] [µM] | solubility at 18 h [6] [µM] | solubility at 18 h [7] [µM] | Time [8] [h] | solubility at 18 h [9] [µM] | EC50 (Calcitonin receptor [10]) [nM] | EC50 [11] [nM] | solubility at 18 h [12] [µM] | remaining at 1 µM [13] [%] | EC50 [14] [nM] | Structure (SMILES)
≥ 200 | ≥ 200 | 0.013 | ≥ 200 | ≥ 200 | ≥ 200 | ≥ 200 | > 45 | ≥ 200 | 0.025 | 0.062 | ≥ 200 | 100 |  | CC(C)C[C@H](NC(=O)[C@H](C)NC(=O)[C@H](C)NC(=O)[C@@H](NC(=O)[C@H](CO)NC(=O)[C@H](CC(C)C)NC(=O)[C@H](CCC(=O)O)NC(=O)[C@H](CO)NC(=O)[C@H](C)NC(=O)COCCOCCNC(=O)COCCOCCNC(=O)COCCOCCNC(=O)COCCOCCNC(=O)CC[C@H](NC(=O)CCCCCCCCCCCCCCCCCCC(=O)O)C(=O)O)[C@@H](C)O)C(=O)NCC(=O)N[C@@H](CCCNC(=N)N)C(=O)N[C@@H](CC(C)C)C(=O)N[C@@H](CO)C(=O)N[C@@H](C)C(=O)N[C@@H](CCC(=O)O)C(=O)N[C@@H](CC(C)C)C(=O)N[C@@H](Cc1cnc[nH]1)C(=O)N[C@@H](CCC(=O)O)C(=O)N[C@@H](CC(C)C)C(=O)N[C@@H](C)C(=O)N[C@H](C(=O)N[C@@H](CC(C)C)C(=O)N1CCC[C@H]1C(=O)N[C@@H](CCCNC(=N)N)C(=O)N[C@H](C(=O)N[C@@H](CCC(=O)O)C(=O)N[C@H](C(=O)NCC(=O)N[C@@H](CO)C(=O)NCC(=O)N[C@@H](CO)C(=O)N1CCC[C@H]1C(N)=O)[C@@H](C)O)[C@@H](C)O)[C@@H](C)O ({C20 diacid-γGlu-AEEA-AEEA-AEEA-AEEA}-ASELSTAALGRLSAELHELATLPRTETGSGSP-NH2)
≥ 200 | ≥ 200 |  | ≥ 200 | ≥ 200 |  | ≥ 200 | 1 | ≥ 200 | 0.036 | 0.067 | ≥ 200 | 16 | 0.062 | CC(C)C[C@H](NC(=O)[C@H](CCCNC(=N)N)NC(=O)CNC(=O)[C@H](CC(C)C)NC(=O)[C@@H](NC(=O)[C@H](C)NC(=O)[C@@H](NC(=O)[C@H](CO)NC(=O)[C@H](CC(C)C)NC(=O)[C@H](CCC(N)=O)NC(=O)[C@H](CO)NC(=O)[C@H](C)NC(=O)CC[C@H](NC(=O)CCCCCCCCCCCCCCCCCCC(=O)O)C(=O)O)[C@@H](C)O)C(C)C)C(=O)N[C@@H](CO)C(=O)N[C@@H](CCC(N)=O)C(=O)N[C@@H](CCC(=O)O)C(=O)N[C@@H](CC(C)C)C(=O)N[C@@H](Cc1cnc[nH]1)C(=O)N[C@@H](CCC(=O)O)C(=O)N[C@@H](CC(C)C)C(=O)N[C@@H](CCC(N)=O)C(=O)N[C@H](C(=O)N[C@@H](Cc1ccc(O)cc1)C(=O)N1CCC[C@H]1C(=O)N[C@@H](CCCNC(=N)N)C(=O)N[C@H](C(=O)N[C@@H](CCC(=O)O)C(=O)N[C@H](C(=O)NCC(=O)N[C@@H](CO)C(=O)N[C@@H](CCC(N)=O)C(=O)N[C@H](C(=O)N[C@@H](Cc1ccc(O)cc1)C(N)=O)[C@@H](C)O)[C@@H](C)O)[C@@H](C)O)[C@@H](C)O ({C20 diacid-γGlu}-ASQLSTAVLGRLSQELHELQTYPRTETGSQTY-NH2)
